# Results: patent publication US6331642A, “Vitamin D3 analogs” (Hoffmann-La Roche Inc., priority 2000, dated 2001)
# How the values were obtained:
# ventral prostate = experiment: Antiandrogenic activity in castrated testosterone stimulated hamsters, ventral prostate; format: in vivo, male Syrian hamsters; details: testosterone 20 μg s.c. daily, 14 days; vehicle 12 ± 1
# Description: (§1) 1,25(OH)2 -16-ene-5,6-trans D3 was evaluated for antiandrogenic activity in castrated, testosterone stimulated male Syrian hamsters.
# (§2) […] Both compounds were administered in a vehicle of 0.2 ml sesame oil each. Necropsy was performed on day 15. The prostate and seminal vesicles were removed, blotted and weighed. Data were analyzed for statistical significance using the Student's t-test and are expressed as percent inhibition of stimulated response.
# seminal vesicles = experiment: Antiandrogenic activity in castrated testosterone stimulated hamsters, seminal vesicles; format: in vivo, male Syrian hamsters; details: testosterone 20 μg s.c. daily, 14 days; vehicle 36 ± 3; mg ± SEM
# Description: as §1, §2
smiles,measurement,setting,value
"CCC(=O)O[C@H]1CC[C@H]2[C@@H]3CCC4=CC(=O)CC[C@]4(C)[C@H]3CC[C@]12C [Testosterone, testosterone propionate, reference compound]",Ventral prostate weight,ventral prostate,43 ± 5 mg
same,Seminal vesicles weight,seminal vesicles,105 ± 6 mg
